Reference: a melting point compilation (Tetko et al.; mined from patent text by program, amines drawn as free bases though some values may be those of a salt)

Compound | melting point [°C]
O=C(NO)c1ccc2c(c1)CN(C(=O)c1cc3ccccc3cn1)C2 | 208 to 210
CC(C)n1nc(O)nc1N(C)C | 111 to 112
C(=C\c1cc(/C=C/c2ccc3cc[nH]c3c2)[nH]n1)/c1ccc(N2CCOCC2)cc1 | 236 to 238
CCCCCCCCCCCCCCCCCC(=O)NCC(C)(C)NCC(O)c1cc(Cl)c(N)c(Cl)c1 (stereo not drawn) | 74 to 76
COc1cc(OC)nc(Sc2ncccc2C(=O)O)n1 | 165 to 168
O[C@@H]1C=CO[C@H](COCc2ccccc2)[C@H]1OCc1ccccc1 | 53
CS(=O)(=O)O[C@H]1CCNC1=O | 122 to 124
COc1ccc(C=Cc2c(Cl)cncc2Cl)c2c1OC1(CCCC1)O2 | 100 to 101
O=Cc1c2ccccc2c(SCCO)c2ccccc12 | 103 to 104
Cc1cc(Cl)ncc1C(=O)Nc1ccc2c(c1)-c1c(c(C(N)=O)nn1-c1ccc(F)cc1)CC2 | 280 to 284
NC(=O)Cc1ccc2ccn(C3CCN(CCc4ccc(F)cc4)CC3)c2c1 | 112 to 113
C=CCN1CCc2ccc(C(=O)CCC(=O)N3CCC(c4ccc(Cl)cc4)CC3)cc2CC1 | 136 to 137
O=C(Cc1ccc(Cl)cc1)OCCCOc1c(Cl)cc(OCC=C(Cl)Cl)cc1Cl | 62.2
CCNC(=O)NCCCN1C(=Nc2ccc3c(c2)OCO3)CSC1c1ccccc1OC (stereo not drawn) | 134 to 136
CCCCc1oc2ccccc2c1/C=N/OCCCOc1ccc(C(=O)O)c(NC(=O)c2ccc(C(C)(C)C)cc2)c1 | 181 to 182
CON1CCC2(CC1)C(O)=C(c1c(C)cc(C)cc1C)C(=O)N2C | 171 to 178
Cc1csc2ncc(C(O)CCCCc3ccccc3)n12 (stereo not drawn) | 120 to 121
COCCc1nc2c(N)nc3ccccc3c2n1CCOc1ccccc1 | 171 to 174
Cn1c(=O)c2c(N3CCCCC3)cccc2n2cnc(-c3noc(C4CC4)n3)c12 | 185 to 192
CCOC(=O)c1nn(-c2ccc(Cl)cc2Cl)c(-c2ccc(Cl)cc2)c1C#N | 112
O=C(O)C(Br)c1ccc(Cl)cc1 (stereo not drawn) | 92 to 93

Now from value to molecule:

melting point [°C] | Compound
252 to 253 | CS(=O)(=O)c1ccc(-c2cnn(-c3ccc([N+](=O)[O-])s3)c(=O)c2-c2ccc(F)cc2)cc1
215 to 216 | CSc1nnc(Cc2cccnc2)c(=O)[nH]1
172 to 173 | Cc1cccc(-c2ccccc2)c1NC(=S)NC(=O)c1ccccc1
140 to 141 | CC[C@H](C)[C@H](NC(=O)O[C@@H](CC(C)C)C(=O)OCc1ccccc1)C(N)=O
137 to 139 | N#CC(O)c1cccc2c(-c3ccccc3)c([N+](=O)[O-])oc12 (stereo not drawn)
129 to 133 | CC(=NNc1ccccc1)c1c(-c2ccccc2)noc1C
138 | Cc1c(NC(=O)c2ccc(OCC3CCCO3)cc2)ccc2cc(CNCC(C)(C)O)cnc12 (stereo not drawn)
77 to 78 | CCOC(=O)COC(=O)c1cc(NC(=O)OCc2ccccc2)ccc1OCC(=O)OCC
180 to 189 | O=C(C#Cc1ccc(CCN2CCCC2)cc1)Nc1ccc(-c2ccccc2)cc1
232 to 234 | O=C1C(c2cccc(-c3ccccc3)c2)n2cncc2CN1Cc1ccccc1 (stereo not drawn)
47 to 49 | CC(C)c1cc(C(C)(C)C)cc(Br)c1OCc1ccccc1
80 | CCc1ccc(C(O)COc2ccc(C=O)cc2)nc1 (stereo not drawn)
162 to 165 | O=[N+]([O-])c1ccc(CSc2cc(Cl)nc3c2ncn3C2OC(CO)C(O)C2O)cc1 (stereo not drawn)
175 to 176 | CC/C(=C(\c1ccc(/C=C/C(=O)O)cc1)c1ccc(OC(=O)c2cccs2)cc1)c1ccccc1
106 to 108 | O=[N+]([O-])c1ccc(F)c(-c2ccc(CO)cc2)c1
185 to 186 | O=C(c1c[nH]c2cc(OCc3ccc(F)cc3)ccc12)C1CSC(c2cccnc2)N1 (stereo not drawn)
173 to 174 | COc1ccc(-n2nccc2-c2nn(-c3cccc(C(F)(F)F)c3)ccc2=O)cc1
